Experimental findings from patent US20180207294A1, “NON-ALCOHOLIC FATTY LIVER REGULATING FACTOR 14-3-3 PROTEIN” (Korea University Research and Business Foundation, priority 2015, published 2018) are described below.

Holding throughout (assay type): cell-based
Experiment [1] deals with primary mouse hepatocytes. Put plainly: Triglyceride colorimetric assay, primary mouse hepatocytes. As to conditions: primary mouse hepatocytes; 14-3-3 overexpression; 200 μM oleic acid 72 hours; FIG. 10A. Here is the method:
(§1) A triglyceride (neutral fat) is a type of fatty acid and is used as an index of a fat content. A biochemical lipid test was carried out by measuring an amount of triglycerides. HepG2 cells and primary mouse hepatocytes were separately seeded in a 6-well plate at a density of 4×10^5 cells per each well, and then transfected with GFP-14-3-3β DNA (1 μg) or GFP-14-3-3γ DNA (1 μg) and si-14-3-3β (10 μM, Santa Cruz) or si-14-3-3γ (10 μM, Santa Cruz) using an E-fection plus reagent (Lugen). A ratio of DNA to the E-fection plus reagent was 1:2, and this method was performed according to a manufacturer's manual. After transfection, the cells were treated with 200 μM of oleic acid (OA) for 72 hours, and the amount of triglycerides was measured using a triglyceride colorimetric assay kit (Cayman Chemical). The corresponding cells were washed with ice-cold PBS and then scraped using a standard diluent assay reagent, the scrapping process was repeated using a sonicator 20 times to lyse the cells, and the lysed cells were reacted with an enzyme buffer solution for 15 minutes, followed by measurement using an ELISA reader (Bio-Rad Laboratories, Inc) at a wavelength of 550 nm.

In experiment [2] the test system is primary mouse hepatocytes. Put plainly: Oil Red-O lipid accumulation, primary mouse hepatocytes. As to conditions: 14-3-3 overexpression, 200 μM oleic acid 72 hours, FIG. 9B. Here is the method: HepG2 cells and primary mouse hepatocytes were separately seeded in a 6-well plate at a density of 4×10^5 cells per each well, and then transfected with GFP-14-3-3β DNA (1 μg) or GFP-14-3-3γ DNA (1 μg) and si-14-3-3β (10 μM, Santa Cruz) or si-14-3-3γ (10 μM, Santa Cruz) using an E-fection plus reagent (Lugen). A ratio of DNA to the E-fection plus reagent was 1:2, and this method was performed according to a manufacturer's manual. […] The stained cells were bleached with 1 ml of isopropanol and analyzed at a wavelength of 550 nm using a DU530 spectrophotometer (Beckman Instruments, Palo Alto, Calif.).

The test system of experiment [3] is HepG2 cells. Put plainly: Triglyceride colorimetric assay, HepG2 cells. As to conditions: 14-3-3 overexpression, 200 μM oleic acid 72 hours, FIG. 10A. Here is the method: as §1
In experiment [4] the target is T1, PPARγ2 S273A mutant (Homo sapiens, UniProt P37231, S273A).
T1 construct: expressed in transfected cells; host or cells: HEK-293T
T1 sequence (P37231 1-505 S273A): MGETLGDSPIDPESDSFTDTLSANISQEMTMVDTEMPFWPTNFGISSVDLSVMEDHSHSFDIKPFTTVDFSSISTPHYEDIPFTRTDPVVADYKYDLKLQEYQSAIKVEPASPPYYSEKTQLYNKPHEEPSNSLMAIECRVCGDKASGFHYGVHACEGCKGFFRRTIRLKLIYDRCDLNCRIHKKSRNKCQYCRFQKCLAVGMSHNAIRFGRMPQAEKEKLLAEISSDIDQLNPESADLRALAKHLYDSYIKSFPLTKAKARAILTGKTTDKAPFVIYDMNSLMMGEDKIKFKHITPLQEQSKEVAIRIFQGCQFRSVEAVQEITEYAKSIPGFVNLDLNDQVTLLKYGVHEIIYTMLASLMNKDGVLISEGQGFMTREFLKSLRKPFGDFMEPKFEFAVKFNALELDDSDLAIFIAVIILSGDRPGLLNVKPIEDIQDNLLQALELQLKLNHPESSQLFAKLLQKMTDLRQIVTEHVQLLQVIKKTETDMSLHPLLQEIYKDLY
Put plainly: aP2 promoter luciferase assay with PPARγ2 S273A mutant (HEK-293T). As to conditions: FIG. 4C, 4D. Here is the method:
In addition, HEK-293T cells were seeded in a 12-well plate at a density of 1×10^5 cells per each well, and then transfected with an aP2 promoter construct (0.5 μg), Flag-PPARγ2 (S112A) DNA (0.5 μg) or Flag-PPARγ2 (S273A) DNA (0.5 μg), and mGST-14-3-3β DNA (0.5 μg) or mGST-14-3-3γ DNA (0.5 μg) using an E-fection plus reagent (Lugen). A ratio of DNA to the E-fection plus reagent was 1:2, and this method was performed according to a manufacturer's manual. The corresponding cells were washed with ice-cold PBS, and lysed using 80 μl/well of a reporter lysis buffer (Promega, Madison, Wis.), and the lysed cells were centrifuged at 10,000×g and 4° C. for 10 minutes to collect a supernatant, and luciferase activity was measured. As an instrument, Luminometer 20/20n (Turner Biosystems, Sunnyvale, Calif.) was used. For normalization, the cells were cotransfected with pSV40β-galactosidase. For the collected supernatant, β-galactosidase activity was measured and the luciferase activity was revised, and the obtained values were plotted. At this time, a β-galactosidase enzyme analysis system (Promega, Madison, Wis.) was used, and analysis was performed using a DU530 spectrophotometer (Beckman Instruments, Palo Alto, Calif.).

The test system of experiment [5] is FAT/CD36 promoter. Put plainly: Chromatin immunoprecipitation (ChIP) of PPARγ2 on FAT/CD36 promoter, HepG2 cells. As to conditions: overexpression of 14-3-3β / 14-3-3γ, FIG. 7C upper side. Here is the method: In addition, for chromatin immunoprecipitation (ChIP), HepG2 cells were seeded in a 100 mm plate at a density of 4×10^6 cells per each well, and then transfected with Flag-PPARγ2 DNA (4 μg), mGST-14-3-3β DNA (4 μg) or mGST-14-3-3γ DNA (4 μg), and si-14-3-3β (20 μM, Santa Cruz) or si-14-3-3γ (20 μM, Santa Cruz) using an E-fection plus reagent (Lugen). A ratio of DNA to the E-fection plus reagent was 1:2, and this method was performed according to a manufacturer's manual. The corresponding cells were treated with 0.75% formaldehyde at room temperature for 15 minutes, glycine was added thereto, and the resulting cells were scraped into ice-cold PBS and centrifuged at 1,000×g and 4° C. for 3 minutes to remove a supernatant, pellets were dissolved with 400 μl of FA lysis buffer (50 mM HEPES, 150 mM NaCl, 2 mM EDTA pH8.0, 1% Triton-X100, 0.1% NaDeoxycholate), and then lysed using a sonicator twice for 10 minutes at a high voltage under the following condition: lysis for […] and resting for 30 seconds. […]
In addition, the binding of PPARγ2 and a binding strength thereof according to the expression of 14-3-3β and 14-3-3γ were evaluated by ChIP assay using a PPAR response element (PPRE) known as a binding site of PPARγ2 present in the FAT/CD36 promoter. […]

As to “14-3-3β: 14-3-3 isoform protein, overexpressed by DNA transfection; regulating factor that increases transcriptional activity of PPARγ2”, the triglyceride accumulation result in experiment [1] and in experiment [3] was “further increased” each time. Besides, the “lipid accumulation by oleic acid (Oil Red-O)” value in experiment [2] is “increased lipid accumulation”. Further, in experiment [4], the “change in transcriptional activity of PPARγ2 S273A mutant on 14-3-3 overexpression” value is given as “no change”. Further, in experiment [5], the “binding of PPARγ2 to the FAT/CD36 promoter (ChIP)” value was “increased”.
“14-3-3γ: 14-3-3 isoform protein, overexpressed by DNA transfection; regulating factor that decreases transcriptional activity of PPARγ2”: the triglyceride accumulation entry in experiment [1] and in experiment [3] was “reduced triglyceride accumulation” in each case. The “lipid accumulation by oleic acid (Oil Red-O)” value in experiment [2] is reported as “reduced lipid accumulation”. Also, the “change in transcriptional activity of PPARγ2 S273A mutant on 14-3-3 overexpression” value in experiment [4] was “no change”. In experiment [5], the “binding of PPARγ2 to the FAT/CD36 promoter (ChIP)” value was “inhibited”.
